Measured values published in patent US20060069132A1, “Azolecarboxamide herbicides” (priority 2004, published 2006).

Experiments:
barnyardgrass [1] = experiment: Test C flooded paddy test; assay type: in vivo, Echinochloa crus-galli
How it was run: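 Greenhouse test with a 12–14 day hold after application and visual comparison with controls. Emerged plants were 1- to 4-leaf stage (2–18 cm) when sprayed postemergence, and the paddy barnyardgrass was at 2 leaves under flooded conditions. 100 = complete control.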

large crabgrass = experiment: Test B pre-/postemergence herbicide test; assay type: in vivo, Digitaria sanguinalis; settings: for Crabgrass, Large plant response rating: postemergence
How it was run: (§1)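 Formulation: non-phytotoxic solvent mix with surfactant. Timing: preemergence on seed and postemergence on 2–18 cm plants, applied concurrently. Readout after 13–15 d greenhouse: visual 0–100 control rating against controls.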

giant foxtail = experiment: Test B pre-/postemergence herbicide test; assay type: in vivo, Setaria faberi; settings: for Foxtail, Giant plant response rating: postemergence
How it was run: as §1

wild oat = experiment: Test B postemergence herbicide test; assay type: in vivo, Avena fatua; settings: postemergence
How it was run: (§2)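 Formulated test chemicals went onto postemergence plants measuring 2 to 18 cm, at one to four leaves. For the paddy assay, species had reached two leaves. Scoring took place 13–15 days later by eye, relative to untreated plants, using 0 for no effect up to 100 for full control.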

cocklebur = experiment: Test B pre-/postemergence herbicide test; assay type: in vivo, Xanthium strumarium; settings: for Cocklebur plant response rating: postemergence, scale 0 (no effect) to 100 (complete control)
How it was run: (§3)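 Visual rating, 0 (no effect) to 100 (complete control), versus untreated controls after 13–15 d in greenhouse. Pre- and postemergence applications (postemergence plants 2–18 cm, 1–4 leaves); flooded paddy arm at 2-leaf stage. Compounds in non-phytotoxic solvent plus surfactant.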

blackgrass = experiment: Test B postemergence herbicide test; assay type: in vivo, Alopecurus myosuroides; settings: postemergence, visual rating, scale 0 (no effect) to 100 (complete control)
How it was run: (§4)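 Visual ratings, 0 (no effect) to 100 (complete control), made versus controls after 13–15 d greenhouse. Paddy plants treated at 2-leaf stage; postemergence plants at 1- to 4-leaf stage, 2–18 cm tall.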

[2] = tested on: smallflower umbrella sedge; experiment: Test C flooded paddy test; assay type: in vivo, Cyperus difformis
rice [3] = experiment: Test B pre-/postemergence herbicide test; assay type: in vivo, Oryza sativa; settings: 0 = no effect, 100 = complete control, preemergence
How it was run: as §1

corn = experiment: Test B pre-/postemergence herbicide test; assay type: in vivo, Zea mays; settings: for Corn plant response rating: postemergence
How it was run: as §1

Surinam grass = experiment: Test B pre-/postemergence herbicide test; assay type: in vivo, Urochloa decumbens; settings: for Surinam Grass plant response rating: postemergence
How it was run: as §1

pigweed = experiment: Test B pre-/postemergence herbicide test; assay type: in vivo, Amaranthus retroflexus; settings: for Pigweed plant response rating: postemergence
How it was run: as §1

barnyardgrass [4] = experiment: Test B flooded paddy test; assay type: in vivo, Echinochloa crus-galli; settings: 1000 g ai/ha, scale 0 to 100 (0 no effect, 100 complete control)
How it was run: as §4

velvetleaf = experiment: Test B pre-/postemergence herbicide test; assay type: in vivo, Abutilon theophrasti; settings: for Velvetleaf plant response rating: postemergence
How it was run: as §1

[5] = tested on: small flower umbrella sedge; experiment: Test B flooded paddy test; assay type: in vivo, Cyperus difformis; settings: 1000 g ai/ha, scale 0 to 100 (0 no effect, 100 complete control)
How it was run: as §4

lambsquarters = experiment: Test B pre-/postemergence herbicide test; assay type: in vivo, Chenopodium album; settings: for Lambsquarters plant response rating: postemergence
How it was run: as §1

ducksalad [6] = experiment: Test C flooded paddy test; assay type: in vivo, Heteranthera limosa
rice [7] = experiment: Test B flooded paddy test; assay type: in vivo, Oryza sativa; settings: 1000 g ai/ha, scale 0 to 100 (0 no effect, 100 complete control)
How it was run: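 Scale 0–100: zero equals no visible effect, 100 complete control, judged by eye relative to controls. Timing: 13 to 15 days in greenhouse post-treatment. Growth stage at spraying: two leaves (paddy) or one to four leaves, 2–18 cm (postemergence).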

morningglory = experiment: Test B pre-/postemergence herbicide test; assay type: in vivo, Ipomoea coccinea; settings: for Morningglory plant response rating: postemergence
How it was run: as §3

barnyardgrass [8] = experiment: Test B pre-/postemergence herbicide test; assay type: in vivo, Echinochloa crus-galli; settings: for Barnyardgrass plant response rating: postemergence, scale 0 (no effect) to 100 (complete control)
How it was run: as §3

rice [9] = experiment: Test C flooded paddy test; assay type: in vivo, Oryza sativa
How it was run: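 Postemergence sprays applied to plants 2 to 18 cm tall (1- to 4-leaf stage); paddy species grown to 2-leaf stage under flooding. After 12 to 14 days in greenhouse, visual rating versus untreated controls on 0–100 scale (0 no effect, 100 complete control).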

ducksalad [10] = experiment: Test B flooded paddy test; assay type: in vivo, Heteranthera limosa; settings: 1000 g ai/ha, scale 0 to 100 (0 no effect, 100 complete control)
How it was run: as §4

wheat = experiment: Test B postemergence herbicide test; assay type: in vivo, Triticum aestivum; set-up: key to Wheat plant response rating: 0 = no effect, 100 = complete control; settings: postemergence
How it was run: as §2

[11] = 125 g ai/ha, scale 0 to 100 (0 no effect, 100 complete control)
[12] = 250 g ai/ha, scale of 0 to 100, 0 is no effect, 100 is complete control
[13] = 500 g ai/ha, visual rating after 12 to 14 days, scale 0 to 100 (0 no effect, 100 complete control)
[14] = 125 g ai/ha, 0 = no effect, 100 = complete control, preemergence
[15] = 125 g ai/ha, visual rating, scale 0 (no effect) to 100 (complete control)
[16] = 500 g ai/ha, scale 0 to 100, 0 is no effect, 100 is complete control
[17] = 500 g ai/ha, visual rating, 0 = no effect, 100 = complete control, preemergence

## CCn1nc(C(C)(C)C)cc1C(=O)Nc1cncc(C(=O)N2CC=CC2)c1 [Compound 260]
Barnyardgrass [1]; 62 g ai/ha, scale 0 to 100 (0 no effect, 100 complete control)
  Barnyardgrass plant response rating: 0
Barnyardgrass [1]; [11]
  Barnyardgrass plant response rating: 0
Barnyardgrass [1]; [12]
  Barnyardgrass plant response rating: 20
Barnyardgrass [1]; [13]
  Plant response rating, Barnyardgrass: 35
Large crabgrass; [14]
  Crabgrass, Large plant response rating (0 to 100 scale): 0
Large crabgrass; [15]
  Crabgrass, Large plant response rating: 0
Large crabgrass; [16]
  Crabgrass, Large plant response rating: 10
Giant foxtail; [14]
  Foxtail, Giant plant response rating (0 to 100 scale): 0
Giant foxtail; [17]
  Plant response rating, Foxtail, Giant: 30
Giant foxtail; [15]
  Foxtail, Giant plant response rating: 0
Giant foxtail; [16]
  Foxtail, Giant plant response rating: 0
Wild oat; [15]
  Oat, Wild plant response rating: 20
Wild oat; [16]
  Oat, Wild plant response rating: 30
cocklebur; [14]
  Cocklebur plant response rating (0 to 100 scale): 0
cocklebur; [17]
  Plant response rating, Cocklebur: 0
cocklebur; 125 g ai/ha, visual rating
  Cocklebur plant response rating: 10
cocklebur; 500 g ai/ha, visual rating
  Cocklebur plant response rating: 20
blackgrass; 125 g ai/ha
  Blackgrass plant response rating: 10
blackgrass; 500 g ai/ha
  Blackgrass plant response rating: 10
[2]; 62 g ai/ha, scale 0 to 100
  Sedge, Umbrella plant response rating: 0
[2]; [11]
  Sedge, Umbrella plant response rating: 40
[2]; [12]
  Sedge, Umbrella plant response rating: 65
[2]; [13]
  Plant response rating, Sedge, Umbrella: 65
Rice [3]; 125 g ai/ha
  Rice plant response rating (0 to 100 scale): 0
Rice [3]; 500 g ai/ha, visual rating
  Plant response rating, Rice: 30
corn; [14]
  Corn plant response rating (0 to 100 scale): 0
corn; [17]
  Plant response rating, Corn: 0
corn; [15]
  Corn plant response rating: 0
corn; [16]
  Corn plant response rating: 0
Surinam grass; [14]
  Surinam Grass plant response rating (0 to 100 scale): 0
Surinam grass; [17]
  Plant response rating, Surinam Grass: 10
Surinam grass; [15]
  Surinam Grass plant response rating: 0
Surinam grass; [16]
  Surinam Grass plant response rating: 20
pigweed; [17]
  Plant response rating, Pigweed: 100
pigweed; [15]
  Pigweed plant response rating: 20
pigweed; [16]
  Pigweed plant response rating: 70
Barnyardgrass [4]
  Barnyardgrass plant response rating: 60
velvetleaf; [14]
  Velvetleaf plant response rating (0 to 100 scale): 0
velvetleaf; [17]
  Plant response rating, Velvetleaf: 10
velvetleaf; [15]
  Velvetleaf plant response rating: 0
velvetleaf; [16]
  Velvetleaf plant response rating: 20
[5]
  Sedge, Umbrella plant response rating: 70
lambsquarters; [17]
  Plant response rating, Lambsquarters: 100
lambsquarters; [15]
  Lambsquarters plant response rating: 10
lambsquarters; [16]
  Lambsquarters plant response rating: 30
Ducksalad [6]; 62 g ai/ha, scale 0 to 100
  Ducksalad plant response rating: 0
Ducksalad [6]; [11]
  Ducksalad plant response rating: 70
Ducksalad [6]; [12]
  Ducksalad plant response rating: 75
Ducksalad [6]; [13]
  Plant response rating, Ducksalad: 85
Rice [7]
  Rice plant response rating: 70
morningglory; [14]
  Morningglory plant response rating (0 to 100 scale): 0
morningglory; [17]
  Plant response rating, Morningglory: 0
morningglory; [15]
  Morningglory plant response rating: 0
morningglory; [16]
  Morningglory plant response rating: 10
Barnyardgrass [8]; [14]
  Barnyardgrass plant response rating (0 to 100 scale): 0
Barnyardgrass [8]; [17]
  Plant response rating, Barnyardgrass: 70
Barnyardgrass [8]; 125 g ai/ha, visual rating
  Barnyardgrass plant response rating: 0
Barnyardgrass [8]; 500 g ai/ha, visual rating
  Barnyardgrass plant response rating: 0
Rice [9]; 62 g ai/ha, scale 0 to 100
  Rice plant response rating: 0
Rice [9]; [11]
  Rice plant response rating: 0
Rice [9]; [12]
  Rice plant response rating: 0
Rice [9]; [13]
  Plant response rating, Rice: 15
Ducksalad [10]
  Ducksalad plant response rating: 90
wheat; [15]
  Wheat plant response rating: 20
wheat; [16]
  Wheat plant response rating: 40
